Measured values: article PMC5007552, “The hVps34‐SGK3 pathway alleviates sustained PI3K/Akt inhibition by stimulating mTORC1 and tumour growth” (The EMBO Journal, 2016)

Columns and labels:
S6K1 = S6K1 (Homo sapiens, UniProt P23443); assay: IC50 on recombinant S6K1 (p70S6K); format: biochemical; details: Fig 5B / Appendix Fig S1B, recombinant kinase, unit inferred
Experimental: The result for each kinase is presented as a mean kinase activity of the reaction taken in triplicate relative to a control reaction where the inhibitors were omitted. […] SGK3 was immunoprecipitated from cell lysates and subjected to in vitro kinase assay by measuring phosphorylation of the Crosstide substrate peptide in the presence of 0.1 mM [γ‐^32P]ATP in a 30 min 30°C reaction (upper panel). Kinase reactions are presented as means ± SD for triplicate reaction.
Appendix Figure S1. […] (A) Chemical struc tures of
Sano/f_i-14g, -14i and -14n compounds. (B) IC50 values of inhibitors on indicated recombinant k inases. […]

BT-474c cells = assay: Immunoblot of mTORC1 pathway markers in BT-474c cells; format: cell-based, human; details: 5 days 1 μM MK-2206, then 3 μM 14h 1 h
Experimental: SGK3 (upper panel) and S6K1 (middle panel) were immunoprecipitated and subjected to in vitro kinase assay by measuring phosphorylation of the Crosstide substrate peptide in the presence of 0.1 mM [γ‐^32P]ATP in a 30 min 30°C reaction. Kinase reactions are presented as means ± SD for triplicate reaction. Immunoprecipitates (IP) were also analysed by immunoblot with the indicated antibodies. The cell lysates were subjected to immunoblot analysis using the indicated antibodies (bottom panel). Source data are available online for this figure.
HEK293 cells were purchased from the American Tissue Culture Collection (ATCC). Cells were cultured in RPMI or DMEM media supplemented with 10% (v/v) foetal bovine serum, 2 mM L‐glutamine, 100 U/ml penicillin and 0.1 mg/ml streptomycin. Inhibitor treatments were carried out as described in figure legends. During 5 days inhibitor treatments, the media was changed after 72‐h intervals. The cells were lysed in buffer containing 50 mM Tris–HCl (pH 7.5), 150 mM NaCl, 1 mM EDTA, 1 mM EGTA, 1 mM sodium orthovanadate, 10 mM sodium glycerophosphate, 10 mM sodium pyrophosphate, 0.27 M sucrose, 0.1% (v/v) 2‐mercaptoethanol, 1 mM benzamidine and 0.1 mM PMSF. Lysates were clarified by centrifugation at 16,000 g for 10 min at 4°C. Protein concentration was calculated using Bradford assay (Thermo Scientific). […]

BT-474 xenograft tumours = assay: Cleaved caspase-3 immunohistochemistry of xenograft tumours; format: in vivo, mice; details: end of treatment, 4 h after last dosage
Experimental: Figure 8 Dual treatment with Akt and SGK inhibitors reduces tumour growth in BT‐474 xenograft model • BT‐474 cells were treated for the indicated times with 0.3 μM MK‐2206. The cell lysates were analysed by immunoblot using the indicated antibodies. • BT‐474c cells were treated with inhibitors as indicated either as monotherapy or in combination and cell confluency measured on the Incucyte ZOOM every 4 h for up to 4 weeks. • BT‐474 cells were injected subcutaneously into athymic Foxn1 ^nu nude mice. […] The tumour volume was measured twice a week. Tumour growth is represented as the fold change mean ± SEM. • All mice were weighed at the end of the treatments. […] Apoptotic cells were counted in 25 fields per condition (left panel) and quantified as clCasp3‐positive cells/field (right panel). […] Six different tumours were analysed from each treatment group and each line represents one tumour sample. […]
Experiments involving mice were in accordance with Institutional Guidelines of Memorial Sloan Kettering Cancer Center (Protocol number 12‐10‐019). […] When tumours reached a volume of ~150 mm^3, mice were randomised, treated, and tumours were measured twice a week. Tumour volume was determined using the following formula: (length × width^2) ÷ 2. […]

Sequence of S6K1 (P23443 whole entry): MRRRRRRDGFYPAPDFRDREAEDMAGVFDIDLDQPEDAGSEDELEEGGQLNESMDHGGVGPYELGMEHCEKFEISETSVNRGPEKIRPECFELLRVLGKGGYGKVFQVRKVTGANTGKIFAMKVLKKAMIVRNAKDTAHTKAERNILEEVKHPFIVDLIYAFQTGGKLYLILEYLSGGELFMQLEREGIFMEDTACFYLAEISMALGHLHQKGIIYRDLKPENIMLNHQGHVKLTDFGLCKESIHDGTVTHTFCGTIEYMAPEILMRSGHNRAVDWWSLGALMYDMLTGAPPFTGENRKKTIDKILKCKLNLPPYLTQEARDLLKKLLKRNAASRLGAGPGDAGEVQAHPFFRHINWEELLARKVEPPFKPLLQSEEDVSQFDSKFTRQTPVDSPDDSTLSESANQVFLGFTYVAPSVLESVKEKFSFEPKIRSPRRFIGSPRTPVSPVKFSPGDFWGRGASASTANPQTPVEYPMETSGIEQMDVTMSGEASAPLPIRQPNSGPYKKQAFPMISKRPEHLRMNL

| SMILES | IC50 (S6K1) [nM] | phosphorylation of TSC2, S6K1 and S6 protein (BT-474c cells) | number of apoptotic (cleaved caspase-3 positive) cells in tumours (BT-474 xenograft tumours) |
| --- | --- | --- | --- |
| Nc1n[nH]c2nc(-c3ccc(NS(=O)(=O)c4cc(Cl)ccc4Cl)cc3)cnc12 [14h] | 76 | suppression of phosphorylation of TSC2, S6K1 and its downstream target S6 protein | – |
| NC1(c2ccc(-c3nc4ccn5c(=O)[nH]nc5c4cc3-c3ccccc3)cc2)CCC1 [MK-2206] | – | – | increased number of apoptotic cells |
